In patent US9974778B2, “Substituted pyridinones as MGAT2 inhibitors” (BRISTOL-MYERS SQUIBB COMPANY, priority 2014, dated 2018):

target: T1, Human MGAT-2 (Homo sapiens, UniProt Q3SYC2); test: MGAT LCMS Assay; assay type: biochemical; conditions: human MGAT2 membranes expressed in Sf9 cells; 100 μM 2-oleoylglycerol, 15 μM oleoyl-coenzyme A; read-out: h-MGAT LCMS IC50
T1 construct: made in house; host or cells: Sf9 cells (membrane preparation)
How it was run: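 Robotic enzyme reaction shaken 10 min, quenched with ice-cold methanol containing 1 μg/mL 1,2-distearoyl-rac-glycerol internal standard. Diolein product measured by LC/MS (C8 column, 65° C, APCI(+) triple quad). IC50 derived from diolein/internal standard peak area ratio.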

T1 sequence (Q3SYC2 whole entry): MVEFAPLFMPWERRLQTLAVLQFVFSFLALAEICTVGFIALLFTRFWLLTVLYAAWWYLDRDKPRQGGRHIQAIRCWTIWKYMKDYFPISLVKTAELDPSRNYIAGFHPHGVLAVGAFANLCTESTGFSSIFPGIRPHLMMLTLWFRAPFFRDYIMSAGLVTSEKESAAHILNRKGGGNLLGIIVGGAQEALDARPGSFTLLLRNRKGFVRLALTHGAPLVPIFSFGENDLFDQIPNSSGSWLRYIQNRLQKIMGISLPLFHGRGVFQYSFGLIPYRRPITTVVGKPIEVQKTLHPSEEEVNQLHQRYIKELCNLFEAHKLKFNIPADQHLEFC

IC50 [nM] | SMILES
150 | CCCCCc1ccc(-c2cc(-c3ccc(C)cc3)c(-c3nn[nH]n3)c(=O)[nH]2)cc1 [Example 30, 6-(4-Pentylphenyl)-3-(2H-tetrazol-5-yl)-4-(p-tolyl)pyridin-2(1H)-one]
395 | CCCCCc1ccc(-c2cc(-c3ccc(CC)o3)c(C(=O)Nc3ccc(OCC)cc3)c(=O)[nH]2)cc1 [Example 42, N-(4-Ethoxyphenyl)-4-(5-ethylfuran-2-yl)-2-oxo-6-(4-pentylphenyl)-1,2-dihydropyridine-3-carboxamide]
70 | CCc1cnc(-c2cc(-c3ccc(OCCCCCC(F)(F)F)cc3F)[nH]c(=O)c2)s1 [Example 166, 4-(5-Ethyl-1,3-thiazol-2-yl)-6-{2-fluoro-4-[(6,6,6-trifluorohexyl)oxy]phenyl}-1,2-dihydropyridin-2-one]

SMILES | IC50 [nM]
CCOc1cc(OCCCC(F)(F)F)ccc1-c1cc(-c2ncc(C3CC3)s2)c(C(=O)NS(C)(=O)=O)c(=O)[nH]1 [Example 143, 4-(5-Cyclopropylthiazol-2-yl)-6-(2-ethoxy-4-(4,4,4-trifluorobutoxy)phenyl)-N-(methylsulfonyl)-2-oxo-1,2-dihydropyridine-3-carboxamide] | 52
